# Data from a melting point compilation (Tetko et al.; mined from patent text by program, amines drawn as free bases though some values may be those of a salt).
row,Structure (SMILES),melting point [°C]
1,Cc1ccc(C(=O)Nc2c[nH]nc2C(=O)NCCOC(C)C)cn1,168 to 169
2,CNC(=O)c1c(-c2ccccc2)noc1CC(=O)c1ccccn1,146 to 149
3,CC1=C(C)C(=O)C(CCCCO)=C(C)C1=O,36 to 38
4,O=CNCc1ccc2[nH]cc(CCNC(=O)OCc3ccccc3)c2c1,114 to 116
5,O=c1c2cn(S(=O)(=O)CCCCl)nc2n(CC2CC2)c(=O)n1CC1CC1,95 to 97
6,CCO[PH](=O)CN(C)c1cc(Oc2ccc(C(F)(F)F)cc2Cl)ccc1[N+](=O)[O-] (stereo not given),118 to 120
7,Nc1nc(N)c(CCCN(C(=O)C(F)(F)F)c2ccc(C(=O)O)cc2)c(=O)[nH]1,229 to 230
8,CCCCCc1ccc(-c2ccc(CCc3ccc(F)cc3)cc2)cc1,60
9,O=Cc1c[nH]c2c1ccc1c3ccc(Br)cc3[nH]c12,> 250
10,c1ccc(C2CN=C3NCCN32)cc1 (stereo not given),167 to 170
11,[N-]=[N+]=NC(=O)c1ccc2c(c1)C(=O)OC2=O,100 to 103
12,COC(=O)c1ccc(CCc2c[nH]c3nc(N)[nH]c(=O)c23)cc1,> 220
13,O=C(O)C1Cc2cc(-c3ccccc3)ccc2O1 (stereo not given),186 to 187
14,COc1cccc(CNC(=O)c2nc3cccc(O)c3c(=O)[nH]2)c1,187 to 189
15,Cc1c(C(=O)O)cnn1-c1nc(-c2cc(C(F)(F)F)cc(C(F)(F)F)c2)cs1,261
16,COCCOc1ccc(N=Nc2cc(S(=O)(=O)N3CCCC3)c(O)c3cccc(NS(C)(=O)=O)c23)cc1S(=O)(=O)Cl,184 to 187
17,C=CC(=O)N1c2ccccc2CC1C(=O)O (stereo not given),158 to 160
18,CCCC(C(=O)O)C1(c2ccccc2)CC(O)=C(Sc2ccccc2C(C)C)C(=O)O1 (stereo not given),145 to 146
19,FCCn1ncnc1COc1nn2c(-c3ccccc3F)nncc2c1-c1ccccc1F,172 to 173
20,CCC(CC)Cn1c(=O)c(=O)[nH]c2ccc(NC(C)=O)cc21,168 to 170
21,COc1ccc(N2CCN(C=C3C(=O)Nc4cc(OC)c(OC)cc43)CC2)cc1OC,193 to 195
22,Cn1cccc1C(=O)C(C#N)C(=O)Nc1ccc(F)cc1 (stereo not given),198 to 199
23,CCCCCCCCCC(=O)c1ccc(Br)cc1F,31 to 32
24,CCN1C(=O)C(=CC=C2C=C3c4ccccc4CCN3C3=C2CCCC3)C(=O)N(CC)C1=S,320
25,N#Cc1cc(NC(=O)c2cc3ccccc3s2)ccc1N1CCCCC1,219 to 245

row,Structure (SMILES),melting point [°C]
1,COc1ccc(S(=O)(=O)Nc2ccncc2)c2c1[nH]c1ccccc12,311 to 313
2,C=C(C)CNc1cc(C(=O)O)cc(S(N)(=O)=O)c1Sc1ccc(N)cc1,237 to 240
3,Cc1cc(N2CC=C(C(=O)OC(C)C)CC2)c2cccc(-c3ccc(Cl)cc3Cl)c2n1,131 to 133
4,O=C(Nc1nc(C(F)(F)F)co1)C1c2cc(F)ccc2Oc2ccc(F)cc21,259
5,NC(=O)N(O)CCNC(=O)Cc1cccc(Oc2ccccc2)c1,150 to 152
6,CC(C)N1CCN(CCN2CCC(c3cn(-c4ccc(F)cc4)c4cc(Cl)ccc34)CC2)C1=O,134
7,CCN(CC)c1ccc(S(=O)(=O)N2CCCC2=O)cc1,128 to 130
8,COc1ccc2c(c1)CC(=O)c1cc(C(C)C(N)=O)ccc1S2 (stereo not given),186 to 188
9,Cc1cccc(C)c1NCCNCC(O)COc1cccc2[nH]ncc12 (stereo not given),127 to 128
10,CC1Cc2cc(S(=O)(=O)n3cc(-c4ccccc4)[nH]c3=O)ccc2N1C(=O)CCl (stereo not given),157 to 159
11,CSc1ccc(Cl)c(C(=O)NCC23CC4CC(CC(C4)C2)C3)c1,126 to 127
12,CC(=O)C(=Cc1cccc([N+](=O)[O-])c1)C(=O)OC(C)(C)CN(C)CCC(c1ccccc1)c1ccccc1,65 to 80
13,O=C(O)CCn1ccn([C@H]2CCc3c(F)cc(F)cc3C2)c1=S,182 to 184
14,O=C(O)c1ccn2c1C(C(=O)O)CCC2 (stereo not given),236 to 237
15,O=C(CNc1ccccc1)Nc1c(Cl)ccc2nc(N3CC[C@@H](O)C3)ccc12,230 to 232
16,CC(=O)N(CC(=O)O)c1csc(NC(=O)OCC(Cl)(Cl)Cl)n1,158
17,O=C(O)c1ccc2oc(Cc3cccnc3)cc2c1,197 to 198
18,O=C(c1ccccc1)c1cn2c3ccccc3c3cccc(c1=O)c32,158 to 160
19,CCOC(=O)c1ccc2c(CCN)c[nH]c2c1,169 to 172
20,CNC(=O)C1(CCCN2CCCCC2)CC=CCC1c1ccccc1 (stereo not given),145 to 147
21,CCN(CC)Cc1cc(C(=O)c2ccc(Cl)cc2)cc(C(C)(C)C)c1O,95 to 96.5
22,CCCc1c(OCCCCCC(=O)NCCCCc2cncnc2)ccc(C(C)=O)c1O,87 to 89
23,CC(C)c1ccc(S(=O)(=O)n2c(CCCC(=O)O)cc3nc(C(F)(F)F)ccc32)cc1,144
24,OCC1OC(SCC=Cc2ccccc2)C(O)C(O)C1O (stereo not given),145 to 146
25,Cc1ccc(N2CCN(c3c(C)c(C)c4c(c3C)CC(C)O4)CC2)cc1 (stereo not given),150 to 151

row,Structure (SMILES),melting point [°C]
1,CC(C)Cn1c(CO)nc2c(N)nc3cccnc3c21,226 to 228
2,CC(=O)OCc1c(Br)cccc1N1Cc2cc(C(C)(C)C)ccc2C1=O,176 to 178
3,CC(=O)NCc1ccc(CN2CCN(c3cc(Cl)nc(Cl)n3)CC2)cc1,165 to 166
4,COc1nc(NC(=O)NS(=O)(=O)c2ccccc2C(=O)OCCCl)nc(OC)n1,171 to 174
5,Cc1nn(-c2cc(OC(C)C)c(Cl)cc2Cl)c(C)c1C,56 to 58
6,CC1CCc2nc(N)sc2C1 (stereo not given),98 to 100
7,c1cc(-c2ccncc2)c2sccc2c1,71 to 72
8,CC(=O)n1ncc2c(OCC3CO3)cc(C)cc21 (stereo not given),105 to 107
9,NC(=O)CCCCCCCOc1nc(-c2ccccc2)c(-c2ccccc2)n1-c1ccccc1,152 to 154
10,CCn1ncnc1COc1nn2c(-c3ccccc3F)nncc2c1-c1ccsc1,187 to 193
11,COC(=O)c1ccc(OCc2cccc(OCc3ccc4ccccc4n3)c2)c(OC)c1,100 to 101
12,CCN(CC)c1ccc([N+](=O)[O-])cc1C#N,83 to 85
13,Cc1ccc(Oc2cccc(C#CC(C)N(O)C(N)=O)c2)cc1F (stereo not given),128 to 130
14,CCN1C(=O)C(OC(=O)C(C)(C)C)=C(c2c(C)cc(C)cc2C)C1=O,91
15,COc1ccc2c(c1)CCCC2N(CC(=O)O)C(=O)C(C)CSC(C)=O (stereo not given),158 to 161
16,CCON=C(C(C)=NOCc1ccccc1C(=NOC)C(=O)NC)c1ccc(OC[Si](C)(C)c2ccc(F)cc2)cc1,88 to 90
17,CCCCOc1c(CNC(=O)OC(C)(C)C)n(CC(C)C)c(=O)c2ccc(-c3nnn[nH]3)cc12,152 to 153
18,CCC(O)c1cc2c(cc1C)OCO2 (stereo not given),71 to 72
19,COc1ccc([N+](=O)[O-])c2c1CC(NC(C)=O)CC2 (stereo not given),205 to 206
20,N#Cc1ccc(-c2cccc3cncn23)cc1,117 to 118
21,COc1ccc(CCC(=O)C2C(=O)C=C(C)OC2=O)cc1O (stereo not given),115 to 116
22,O=C(CCCOc1ccc(-c2ccc(Cl)cc2)cc1)NO,168 to 170
23,COC(=O)c1cc2cc(OC)c(OC)cc2cc1C(=O)O,181 to 183
24,COCOc1ccc(CCCOc2nn(Cc3ccccc3)cc2CC(=O)O)c(Oc2ncc(C(F)(F)F)cc2Cl)c1,108 to 109
25,CC1Cc2cc(Br)ccc2C1=O (stereo not given),55

row,Structure (SMILES),melting point [°C]
1,CC(C)n1nc(-c2c(-c3ccccc3)nn3ccc(N4CCN(S(=O)(=O)c5ccccc5)CC4)cc23)ccc1=O,219 to 220
2,C=COCCOc1ccc(C=CC(=O)C=Cc2ccc(OCCOC=C)cc2)cc1,124 to 125
3,COc1c(C=O)ccc(OCC(=O)O)c1Cc1ccc2c(Cl)cccc2c1,191 to 192
4,CCn1cc(C(=O)O)c(=O)c2cc3cc(F)c(N4CCNC(c5ccc(F)cc5)C4)cc3nc21 (racemic),298
5,CC12CCC3c4cc(O)c(O)cc4CCC3C1CCC2O (stereo not given),181 to 183
6,O=C(c1ccc(F)cc1)c1ccc([N+](=O)[O-])cc1Cl,83 to 84
7,CCNC(=NC#N)NCCN(CC1CCc2ccccc2O1)C(=O)OC(C)(C)C (stereo not given),115
8,C=C(C)CNc1cc(Cl)nnc1Cl,172 to 175
9,Cc1ccc(CC(CC(=O)N2CC3CCCCC3C2)C(=O)O)cc1 (stereo not given),133 to 134
10,COc1cc(N2CCCCC2)ccc1C(=O)c1ccccc1C(=O)O,199 to 201
11,CCOC(=O)c1cn(C2CC2)c2nc(N3CCC(n4ccnn4)CC3)c(F)cc2c1=O,213 to 214
12,C(=Cc1ccc2ccccc2c1)c1ccccc1,143 to 145
13,Oc1ccc(C(O)CN2CCN(C(c3ccccc3)c3ccccc3)CC2)cc1 (stereo not given),154
14,CC[C@@H](NC(=O)N1CC(=O)NC[C@@H](Cc2cc(Cl)ccc2OC)C1=O)c1cccc(C(=O)O)c1,121 to 123
15,CCCCCCC1OC1(C(=O)OCC)C(=O)OCC (stereo not given),58 to 60
16,O=C(Nc1cc(C(F)(F)F)ccc1N1CCc2ccccc21)c1ccccc1,114 to 119
17,"CN1CCC(O)(c2cccc(Cl)c2F)C1 (single isomer, unassigned; (+))",123 to 125
18,CC(C)N1C(=O)NC(c2ccc3ocnc3c2)c2cc3c(cc21)OCO3 (stereo not given),84 to 86
19,CN(C)c1nc2ncnc(NCc3ccco3)c2[nH]1,245 to 246
20,CCOC(=O)CCCOc1ccc(C(=O)Nc2ccccc2Oc2ccccc2-c2nnn[nH]2)cc1,162 to 164
21,Nc1cccc(N2C(=O)CCCC2c2ccc(Cl)c(Cl)c2)c1 (stereo not given),202 to 203
22,CN(C)CCC1=Cc2ccccc2N(C)c2ccc(Cl)cc21,82
23,O=C(C[C@H](NC(=O)c1ccccc1)C(=O)O)c1ccc2oc3ccccc3c2c1,124 to 130
24,Cc1ccc(C=Cc2ccc(Br)cc2)cc1,215
25,NC(=O)CNC(=O)c1cccc(-c2cccc3cc(Cc4cc(F)cc(C(F)(F)F)c4)sc23)c1,169 to 170
